Test results taken from patent publication US7662852B2, “Compounds and preparations having antiviral effect” (Lead Chemical Co., Ltd., priority 2003, dated 2010).

Assays:
[1] = system: HIV-1 IIIB; conditions: for Anti-HIV Activity EC50: MT-4 cell infected with T-cell tropic strain HIV-1 IIIB, MOI 0.01, 5 days, MTT; for Safety Index S.I. CC50/EC50 / anti-HIV activity in vitro (in words): MT-4 cell, HIV-1 IIIB
Description: (§1) For this experiment, human T-cell leukemia virus I (HTLV-I) infected T cell strain, MT-4 cell and T cell leukemia cell strain, MOLT-4 (clone No. 8) cell, HIV-1 continuous infection cell, MOLT-4/IIIB cell were used. The cell was cultured in RPMI-1640 medium (SIGMA) supplemented with 10% inactivated fetal calf plasma (FCS) (MOREGATE, Australia), 100 μg/ml streptomycin and 100 U/ml penicillin G (SIGMA) under a condition of 5% CO2 and 37° C. Subculture was performed every three days by controlling the density to 30×10^4 cells/ml.
HIV-1 IIIB was prepared from the supernatant of MOLT-4/IIIB cell.
MOLT-4/IIIB cell was controlled to a density of 30×10^4 cells/ml and then the culture was started. The cultured liquid was collected three days later, and centrifuged at 3000 rpm for 10 minutes at 4° C. […] These supernatants were passed through 0.45 μm filter. The virus stocks were frozen and stored at −80° C. The amount of virus was adjusted depending on an amount of p24.
• 1) in vitro activity: A phorbol derivative was dissolved in an amount of 1.0 mg in 1.0 ml of DMSO to obtain a concentrated solution.
(§2) The anti-HIV activity of each sample to be tested was evaluated by measuring inhibition activity against cytopathogenicity induced by HIV-1 according to MTTassay. The assay was performed in a triplicate mode, and anti-HIV activity and cytotoxicity were measured simultaneously.
(§3) 96-well plate was used, 10% FCS/RPMI-1640 medium was added in inner 60 wells in an amount of 100 μl/well, and in outer 36 wells in an amount of 200 μl/well in order to prevent evaporation.
(§4) The samples to be tested that were adjusted with RPMI-1640 medium were added in an amount of 25 μl/well in the first lane of the inner 60 wells, and 5-fold stepwise dilution series were prepared by manipulating pipette. In addition, in the last lane, no sample to be tested was added and regarded as control. MT-4 cell suspended in 30×10^4 cells/ml was prepared in two flasks, and the cells in one flask were infected with HIV-1 IIIB in a multiplicity of infection (MOI) of 0.01. The infected or non-infected MT-4 cells were immediately added to samples to be tested in an amount of 100 μl/ml, and cultured under a condition of 5% CO2 and 37° C.
5 days later, the viability of cells was measured based on MTT method by use of Titertek Multiskan.

[2] = system: MT-4 cell; conditions: non-infected MT-4 cell, 5 days, MTT
Description: as §1, §2, §3, §4
5 days later, the viability of cells was measured based on MTT method by use of Titertek Multiskan. MTT adjusted to 7.5 mg/ml with PBS (Ca++, Mg++*free phosphate-buffered saline) was added in an amount of 20 μl/well, and cultured under a condition of 5% CO2 and 37° C., 150 μl of the cultured supernatant was removed and then 100 μl of cytolysis solution (5% (v/v)TritonX-100/acid isopropanol) was added and stirred on a plate mixer for 30 minutes.
The absorbance (reference wavelength: 690 nm) was determined with a plate reader at 540 nm. […] Further, ratio of CC50 to EC50, that is, selective index (SI=CC50/EC50) was calculated.

[3] = system: HIV-1 JRCSF; conditions: NPB-11 1 ng/ml, PBMC infected with HIV-1 JRCSF, 7 days
Description: JRCSF was obtained by culturing 293T cell transfected with 15 μg of virus DNA and collecting the cultured liquid two days later. These supernatants were passed through 0.45 μm filter. The virus stocks were frozen and stored at −80° C. The amount of virus was adjusted depending on an amount of p24.
The infection to peripheral blood mononuclear cells (PBMC) of JRCSF and the evaluation of the anti-HIV activity were performed as follows. 1×10^6 cells/ml of PBMC was inoculated with JRCSF having 20 ng of p24, and the cells were washed 2 hours later. Thereafter, the cells were cultured in a culture liquid containing an agent to be tested for 7 days, and the antiviral activity was detected by measuring p24.
The anti-HIV effect was evaluated by determining the amount of p24 that is one of viral gap proteins and calculating its reduced amount.

[4] = mouse plasma 37° C. 30 min / living organism
Description: (§5) • 1) in vitro activity: A phorbol derivative was dissolved in an amount of 1.0 mg in 1.0 ml of DMSO to obtain a concentrated solution. A sample to be tested was prepared by diluting the concentrated solution with a saline or a phosphate buffer to a predetermined concentration. • 2) stability in blood: 1 ml of blood from the abdominal aorta of 6- to 7-week-old BALB/c male mouse was withdrawn in an injector in which 0.1 ml of 3.8% sodium citrate was contained, and centrifuged at 5000 rpm for 10 minutes to obtain a plasma. The plasma was added in a solution to be tested in a proportion of 9:1 to prepare a diluted solution to be tested in a predetermined concentration of 10-fold dilution. The diluted solution was incubated at 37° C. for 30 minutes to prepare a sample to be tested. • 3) in situ activity: the above-mentioned sample to be tested 1) was orally administered to 6- to 7-week-old BALB/c male mouse in a dose of 1 mg/kg, at 20, 40 and 60 minutes after the administration, blood was withdrawn from the abdominal aorta under light anesthetization similarly to those of the 2) above, and the plasma from the blood was used as a sample to be tested.

[5] = 30 min
Description: as §5

SMILES	Anti-HIV Activity EC50 [1]	Safety Index S.I. CC50/EC50 [1]	anti-HIV activity in vitro (in words) [1]	Cytotoxicity CC50 [2]	amount of viral protein p24 (antiviral effect) [3]	Biological Stability [4]	Heat Stability 56° C., 30′ [5]
CCCCCCCCCC(=O)OC12C(OC(=O)CC)C(C)C3(O)C(C=C(CO)CC4(O)C(=O)C(C)=CC43)C1C2(C)C (centres unmarked) [NPB-5]	>1000 ng ng/ml	125<	lowered in the activity	125 µg/mL			
CCCCCCCCCC(=O)OC12C(OC(=O)CCC)C(C)C3(O)C(C=C(CO)CC4(O)C(=O)C(C)=CC43)C1C2(C)C (centres unmarked) [NPB-9]	>1000 ng ng/ml	125<	lowered in the activity	125 µg/mL			
CCCCCCCCCC(=O)OC12C(OCOC)C(C)C3(O)C(C=C(CO)CC4(O)C(=O)C(C)=CC43)C1C2(C)C (centres unmarked) [NPB-11]	1.7 ng/mL	4066	strong activity	6.9123 µg/mL	little viral protein was detected		
CCCCCCCCCC(=O)OC12C(OC)C(C)C3(O)C(C=C(CO)CC4(O)C(=O)C(C)=CC43)C1C2(C)C (centres unmarked) [NPB-13]	118.9 ng/mL	39	weak activity	4.6173 µg/mL		Stable	
CCCCCCCCCC(=O)OC12C(OCC)C(C)C3(O)C(C=C(CO)CC4(O)C(=O)C(C)=CC43)C1C2(C)C (centres unmarked) [NPB-14]	195.7 ng/mL	17	weak activity	3.3240 µg/mL		Stable	unstable to heat compared with NPB-11
CCCCCCCCCC(=O)OC12C(OC(C)=O)C(C)C3(O)C(C=C(CO)CC4(O)C(=O)C(C)=CC43)C1C2(C)C (centres unmarked) [Sample N-6, reference compound]	1.7 ng/mL	1920	extremely strong anti-HIV activity	3.2638 µg/mL			Stable
